Measured values as given in patent US8563526B2, “Triazole derivatives, their preparation and their application in therapeutics” (Institut National de la Sante et de la Recherche Medicale …, priority 2008, dated 2013).
Read-outs that look alike come from different tables or passages of the source.

Legend:
MiaPaCa cells [1] = assay: MTT cell survival assay on MiaPaCa cells; format: cell-based; conditions: for inhibition at 50 µM: Homo sapiens, MIA PaCa-2, 48 h
Method: Pancreactic cancer cell lines, MiaPaCa cells were cultured in DMEM medium (Gibco) supplemented with 10% fetal bovine serum (FBS). Cells were seeded at a densitiy of 15,000 cells per well in 96 well View Plate™ (Packard) in 250 μl of medium containing the same components as described above.
(§1) Cells were allowed to adhere and proliferate for 24 hr. At that time, culture medium was removed and serial dilutions from 10 nM to 200 μM of the test compounds were added in culture medium. Gemcitabine and no treatment were included as positive and negative controls. Plates were further incubated at 37° C. and 5% CO2 for 48 hours. The number of viable cells remaining after the appropriate treatment was determined by Colorimetric Assay (3-(4,5-dimethylthiazol-2-yl)-2,5-diphenyl tetrazolium bromide, MTT).
(§2) Inhibition of MiaPaCa and Capan-2 cells were tested at different doses of compounds of the invention: 50 μM, 100 μM and 200 μM.
(§3) Cells were seeded on 96-well plates in 250 μL media and 24 hours later, compound to be tested was added in 250 μL of media to the desired final concentration (from 10 nM to 200 μM). After 48 hours, the number of viable cells remaining after the appropriate treatment was determined by MTT. Minimum Efficient Dose (MED) and IC50 values was evaluated from the dose-dependency study. The results in FIGS. 1, 2, 4 and 5 are presented in percentage of cell growth inhibition compared to control non treated cells.

Capan-2 cells = assay: MTT cell survival assay on Capan-2 cells; format: cell-based; conditions: for cells die / cell viability: FIG. 2; for inhibition at 50 µM: Homo sapiens, Capan-2, 48 h, read-out: Inhibition effect on Capan-2 at 50 μM (%)
Method: For Capan-2 cell lines, the cells were cultured in RPMI 1640 medium supplemented with 10% FBS and 1% glutamine. Cells were seeded at a densitiy of 20,000 cells per well in 96 well View Plate™ (Packard) in 250 μl of medium containing the same components as described above.
as §1, §2, §3

MiaPaCa cells [2] = assay: Apoptosis evaluation on MiaPaCa cells by flow cytometry (sub-G0 ratio); format: cell-based; conditions: 24 h after administration, FIG. 3
Method: Cells were plated in 10 cm dishes at the density of 300 000 cells/plate. Cells were stopped for flow cytometry analysis 12, 24 and 48 h post-treatment. After trypsination, cell pellet was washed with PBS and fixed in cold-ethanol 70% overnight at 4° C. After a wash with phosphate-citrate buffer, cells were treated with 200 μL RNA-ase (500 μg/mL), labeled with 1 mL propidium iodide (50 μg/mL), and immediately analyzed by flow cytometry (FACS Calibur, Becton Dickinson, Le Pont-De-Claix, France). Cell death analysis was done on 1,000,000 cells, evaluating the sub-G0 ratio. Each sample was performed in triplicate.

MiaPaCa-2 cells = assay: Combination effect with gemcitabine in vitro, MTT assay on MiaPaCa-2 cells; format: cell-based; conditions: combined with gemcitabine, MiaPaCa-2, FIG. 9
Excerpt: FIG. 9 illustrates the beneficial combination effect of compounds (1, 4 or 18) in vitro based on the results obtained by using a MTT assay on MiaPaCa-2 cells.
Three compounds (compounds n^o 1, 4 and 18) combined with gemcitabine were accessed their anticancer activity.

[3] = system: MiaPaCa-2-xenografed tumors; assay: MiaPaCa-2 xenograft tumor growth in nude mice; format: in vivo
Method: The antitumor effects of the active compounds 1 and 4 were evaluated in nude mice bearing MiaPaCa-2-xenografed tumors. Institutional guidelines for the proper and human use of animals in research were followed. Approximately 1×10^7 MiaPaCa-2 cells were inoculated subcutaneously with 0.1 mL of Matrigel (BD Biosciences Discovery Labware) to 6-week-old male xenografed nude mice. When MiaPaCa-2 tumors reached 100 mm^3, mice were randomly selected for treatment with test compound and no treated mice were used as control. Each experimental group consisted of 8 mice. After randomization, 150 mg/kg test compound was injected every three days by i.p. injection for 5 weeks. The combination injection was performed every two days. Tumor volume measurements were performed once weekly and calculated by the formula length×width×depth×0.5236.

p-8 mRNA = p-8 mRNA expression in MiaPaCa-2 cells by quantitative RT-PCR; format: cell-based; conditions: FIG. 12
Excerpt: The stress-associated protein, p-8 with antiapoptotic properties was strongly expressed in two of the most resistant pancreactic cancer cell lines, while Heat Shock Protein 27 (Hsp27) is a protein which can be over-expressed in many tumor cells and protects against apoptotic cell death triggered by various stimuli. So in order to study the intracellular target of the active compounds, the effect of the active compounds on the expression of p-8 and Hsp27 mRNA in MiaPaCa-2 cells were investigated by quantitative RT-PCR. First-strand cDNA was synthesized in 20 μL reaction with 1 μg total RNA using Expand Reverse Transcriptase (Roche, Meylan, France) following the instructions of the manufacturer. Quantitative PCR was done with the Light Cycler system (Roche) and Takara (Berkeley, Calif.) reagents. Five microliters of 10-fold diluted cDNA were mixed with 10 μL SYBR Premix Ex Taq (including Taq polymerase, reaction buffer, MgCl2, SYBR green I dye, and deoxynucleotide triphosphate mix) and […] forward and reverse primers (TBP primers are used as a control) in a volume of 20 μL. […] Each sample was analyzed in duplicate and the experiment was repeated twice. Results were analyzed using RelQuant (Roche) and expressed as percent of control values.

pancreatic cancer = pancreatic cancer patients, first-line treatment; cited from earlier work
[4] = 50 μM, 48 hours, MTT, Table II, read-out: Inhibition effect on MiaPaCa at 50 μM (%)
[5] = 50 μM, 48 hours, MTT, Table III, read-out: Inhibition effect on MiaPaCa-2 at 50 μM (%)
[6] = 50 μM, 48 hours, MTT, Table III

For `COC(=O)c1nc(C#Cc2ccc(C(F)(F)F)cc2)n([C@@H]2O[C@H](COC(C)=O)[C@@H](OC(C)=O)[C@H]2OC(C)=O)n1` [Compound 1, Methyl 5-(4-trifluoromethylphenylethynyl)-1-(2,3,5-tri-O-acetyl-β-D-ribofuranosyl)-1H-[1,2,4]triazole-3-carboxylate], the inhibition at 50 µM (MiaPaCa cells [1]; [4]) was over 50%, the cells die (MiaPaCa cells [1]; MiaPaCa, 50 μM, FIG. 1) was “about 60%” and the cells die (Capan-2 cells; Capan-2, 50 μM) was “about 60%”. The cells die (Capan-2 cells; Capan-2, 100 μM) was “more than 80%”, the inhibition at 50 µM (Capan-2 cells; 50 μM, 48 hours, MTT, Table II) was over 50% and the “apoptosis compared to cells treated with gemcitabine” value (MiaPaCa cells [2]) was “about 4 times”. For the same molecule, the “apoptosis compared to non-treated cells” value (MiaPaCa cells [2]) was “about 8 times”, the “antiproliferation in combination with gemcitabine” value (MiaPaCa-2 cells) was “more efficiency on antiproliferation” and the MiaPaCa-2 tumor volume ([3]; 150 mg/kg i.p. every three days for 5 weeks, compound alone, FIG. 10) was “reduce MiaPaCa-2 tumor volume”. For the same molecule, the “adverse effect of drug treatment” value ([3]; alone or in combination with gemcitabine, nude mice, FIG. 11) was “absence of adverse effect”, the tumor growth ([3]; combined with gemcitabine, injection every two days, FIG. 10) was “almost sinificantly inhibited” and the “p-8 mRNA expression” value (p-8 mRNA; combination with gemcitabine) was “down-regulated”.

With `COC(=O)c1nc(C#CC2=CCCCC2)n([C@@H]2O[C@H](COC(C)=O)[C@@H](OC(C)=O)[C@H]2OC(C)=O)n1` [Compound 2, Methyl 5-(Cyclohexenylethynyl)-1-(2,3,5-tri-O-acetyl-β-D-ribofuranosyl)-1H-[1,2,4]triazole-3-carboxylate] the inhibition at 50 µM (MiaPaCa cells [1]; [4]) was 21.3%, the cell viability (Capan-2 cells; Capan-2, doses higher than 100 μM) was “cell viability rapidly decreases” and the inhibition at 50 µM (Capan-2 cells; 50 μM, 48 hours, MTT, Table II) was 57.6%.

`NC(=O)c1nc(C#Cc2ccc(Br)cc2)n(COCCO)n1` [Compound 14, 1-((2-hydroxyethoxy)methyl)-5-(2-(4-bromophenyl)ethynyl)-1H-1,2,4-triazole-3-carboxamide] gave an inhibition at 50 µM (MiaPaCa cells [1]; [5]) of over 50% and an inhibition at 50 µM (Capan-2 cells; [6]) of over 50%.

`NC(=O)c1nc(C#Cc2ccc(C(F)(F)F)cc2)n(COCCOC(=O)c2ccccc2)n1` [Compound 15, 1-[(2-(benzoyloxy)ethoxy)methyl]-5-(2-(4-trifluoromethylphenyl)ethynyl)-1H-1,2,4-triazole-3-carboxamide] showed an inhibition at 50 µM (MiaPaCa cells [1]; [5]) of over 50% and an inhibition at 50 µM (Capan-2 cells; [6]) of over 50%.

For `CCCCCCCCCCCCn1cc(-c2nc(C(N)=O)nn2COCCO)nn1` [Compound 17], the “Inhibition effect on MiaPaCa-2 at 50 μM (%)” value (MiaPaCa cells [1]; [6]) was 43.2% and the “Inhibition effect on Capan-2 at 50 μM (%)” value (Capan-2 cells; [6]) was 29.5%.

With `COC(=O)c1nc(-c2cn(Cc3ccc4ccc5cccc6ccc3c4c56)nn2)n(COCCOC(C)=O)n1` [Compound 18, Methyl 1-((2-acetoxyethoxy)methyl)-5-(1-((pyren-3-yl)methyl)-1H-1,2,3-triazol-4-yl)-1H-1,2,4-triazole-3-carboxylate] the inhibition at 50 µM (Capan-2 cells; [6]) was over 50%, the “antiproliferation in combination with gemcitabine” value (MiaPaCa-2 cells) was “more efficiency on antiproliferation” and the “p-8 mRNA expression” value (p-8 mRNA; single treatment) was “significantly inhibit”.

With `NC(=O)c1nc(-c2cn(Cc3ccc4ccc5cccc6ccc3c4c56)nn2)n(COCCO)n1` [Compound 19, 1-((2-hydroxyethoxy)methyl)-5-(1-((pyren-3-yl)methyl)-1H-1,2,3-triazol-4-yl)-1H-1,2,4-triazole-3-carboxamide] the inhibition at 50 µM (MiaPaCa cells [1]; [5]) was 59.3% and the inhibition at 50 µM (Capan-2 cells; [6]) was 43.4%.

Work on `NC(=O)c1nc(-c2cn(Cc3ccc4ccc5cccc6ccc3c4c56)nn2)nn1COCCO` [Compound 20, 1-((2-hydroxyethoxy)methyl)-3-(1-((pyren-3-yl)methyl)-1H-1,2,3-triazol-4-yl)-1H-1,2,4-triazole-5-carboxamide] yielded an inhibition at 50 µM (MiaPaCa cells [1]; [5]) of 28.7% and an inhibition at 50 µM (Capan-2 cells; [6]) of 60.6%.

In the case of `NC(=O)c1nc(-c2cn(-c3cccc4ccccc34)nn2)n(COCCO)n1` [Compound 21, 1-((2-hydroxyethoxy)methyl)-5-(1-(naphthalen-1-yl)-1H-1,2,3-triazol-4-yl)-1H-1,2,4-triazole-3-carboxamide], the inhibition at 50 µM (MiaPaCa cells [1]; [5]) is reported as 30.9% and the inhibition at 50 µM (Capan-2 cells; [6]) is reported as 55.6%.

Molecule `COC(=O)c1nc(-c2cn(-c3ccc4ccc5cccc6ccc3c4c56)nn2)n(COCCOC(C)=O)n1` [Compound 22, Methyl 1-((2-acetoxyethoxy)methyl)-5-(1-(pyren-3-yl)-1H-1,2,3-triazol-4-yl)-1H-1,2,4-triazole-3-carboxylate] has an inhibition at 50 µM (MiaPaCa cells [1]; [5]) of 40.7% and an inhibition at 50 µM (Capan-2 cells; [6]) of 63.9%.

For `Nc1ccn([C@@H]2O[C@H](CO)[C@@H](O)C2(F)F)c(=O)n1` [Gemcitabine, reference compound], the inhibition at 50 µM (MiaPaCa cells [1]; [4]) was 29.3%, the inhibition at 50 µM (MiaPaCa cells [1]; [5]) was 29.3% and the cells remaining alive (MiaPaCa cells [1]; MiaPaCa, 50 μM or 100 μM, FIG. 1) was “about 80%”. The cell viability (Capan-2 cells; Capan-2, with dose increase) was “cell viability stagnates”, the inhibition at 50 µM (Capan-2 cells; 50 μM, 48 hours, MTT, Table II) was 61.7% and the inhibition at 50 µM (Capan-2 cells; [6]) was 61.7%. The response (pancreatic cancer) was 12%.
